Patent publication US5561042A, “Diamine platinum naphthalimide complexes as antitumor agents” (Cancer Therapy and Research Center, priority 1995, dated 1996)
“Also recorded” adds a separate entry of the source.

What was measured:
Lambda DNA = assay: Ethidium bromide displacement, lambda DNA; format: binding; settings: 1 μM DNA, 1.26 μM ethidium bromide, pH 7.0, read-out: FI50, Lambda DNA
Experimental: A 10× Binding solution was prepared by combining 0.93 ml of an aqueous NaCl solution (5M), 2.0 ml of an aqueous Tris HCl (500 mM) solution, 0.1 ml of an EDTA solution (500 mM) and 46.97 ml of water. The resultant solution was 93 mM in NaCl, 20 mM in Tris HCl, and 1 mM in EDTA. Stock DNA solution were prepared as follows: Poly (dG·dC)-(dG·dC) (ε254=8.4/mM; 27-7910-02), poly(dA·dT)-(dA·dT) (ε262=6.6/mM; 27-7870-02), and lambda DNA (ε260-7.0/mM; 27-4111-01) were purchased from Pharmacia. Solutions were prepared by resuspending either poly (dG·dC)-(dG·dC) or poly(dA·dT)-(dA·dT)in 1 ml of 10× DNA Binding Solution. Lambda DNA is already in solution as purchased.
Poly (dG·dC)-(dG·dC), poly(dA·dt)-(dA·dt) and lambda DNA concentrations were determined as follows: 980 μl of 10× DNA Binding Solution was pipetted into a 1 ml cuvette. A blank was run on the UV spectrophotometer. 20 μl of the DNA stock of unknown concentration was then added into the cuvette. The sample was then scanned between 210 nm to 500 nm and the absorbance recorded at 254 nm for poly(dG·dC)-(dG·dC), at 262 nm for poly(dA·dT)-(dA·dT) and at 260 nm for lambda DNA. The solution was transferred to a clean tube. This procedure was followed for three different solutions with the absorbance taken as the average of the three. The concentration of poly(dG·dC)-(dG·dC) stock was calculated to be A254 /8.4×1000 (in μM). The concentration of poly(dA·dT)-(dA·dT) stock was calculated to be A262 /6.6×1000 (in μM). The concentration of lambda DNA stock was calculated to be A260 /7.0×1000 (in μM).
The binding of the bis-naphthalimides to DNA and to synthetic polynucleotide duplexes was determined by an ethidium bromide displacement assay that measures the reduction of fluorescence when ethidium bromide is displaced from DNA (Baguley, 1981). The fluorescence intensity of a 3 ml solution containing 9.3 mM NaCl, 2 mM Tris-HCl (pH 7.0), 100 μM EDTA, 1 μM DNA (in nucleotides) and 1.26 μM ethidium bromide in a quartz cuvette was measured at the excitation (546 nm) and emission (600 nm) wavelengths on a Shimadzu RF5000U spectrofluorometer. Graded concentrations of agent were then added and the fluorescence intensity was measured. The concentration of compound required to reduce the fluorescence intensity by 50% of that of control (FI50) was determined. Therefore, the lower the FI50 the stronger the binding affinity a particular compound has for DNA.
The ability of bis-naphthalimides of the present invention and the known anti-cancer agents compound 22 and DMP840, (R,R)-2,2'[1,2-ethanediylbis[imino(1-methyl-2,1-ethanediyl)]]-bis[5-nitro- 1H benz[de]isoquinoline-1,3-(2H)dione]dimethanesulfonate, to bind to DNA and to synthetic oligonucleotide duplexes was measured using an ethidium bromide displacement assay. Ethidium bromide, a known DNA intercalator, has no fluorescence in the absence of DNA; however, fluorescence intensity increases when ethidium bromide binds to DNA. The ethidium bromide displacement assay measures the decrease in fluorescence intensity caused by DNA-bound ethidium bromide with DNA interacting agents.

[1] = system: SV40 DNA (Form I, negatively supercoiled); assay: SV40 DNA unwinding / mobility by agarose gel electrophoresis; format: binding; settings: for effect on SV40 DNA conformation (in words): agarose gel electrophoresis, 37° C.
Excerpt: The model used in this study, negatively supercoiled, closed circular, plasmid SV40 DNA (Form I), undergoes several stages of drug-induced unwinding that are monitored by agarose electrophoresis.
Central to the understanding of compound 21 action was the ability to assess whether the drug was bound irreversibly (presumably covalently) or reversibly. The system used to extract the reversibly bound drug went through several phases of development. The classic phenol/chloroform mixture cannot completely extract all of the drug. However, the phenol/chloroform mixture effectively extracts the drug in the presence of at least 0.1M NaCl.
Three different systems, A, B and D were used to probe the mode of interaction of compound 21 with DNA.
System A: Compound 21 and DNA in TE buffer (10 mM Tris-HCl, pH 7.5 and 1 mM EDTA) without phenol/chloroform.
System B: Compound 21 and DNA in TE buffer with 0.5M NaCl without phenol/chloroform extraction.
System D: Compound 21 and DNA in TE buffer with 0.5M NaCl followed by phenol/chloroform extraction.
In general, SV40 DNA (90% Form I, negatively supercoiled, and 10% Form II, nicked, Gibco BRL) was incubated with graded concentrations of compound 21 at 37° C. for the indicated time periods in the appropriate system. The isolated DNA was then separated by agarose gel electrophoresis (1% Seakem agarose in 1× TAE buffer) in TAE buffer with 80 volts for 2 hours. Gels were stained with ethidium bromide (0.5 μg/ml) for 15 minutes, washed and then recorded with polaroid film while being irradiated with a UV transilluminator (λ=254 nm).

8-(3'-nitro-1',8'-naphthalimide)-3,6-diazaoctylamine dichloroplatinum(II) [Compound 21]
IC50 (Lambda DNA): 235 nM | effect on SV40 DNA conformation (in words) [1]: potent distortion of DNA conformation; also recorded: gradually converts the negatively supercoiled SV40 DNA (Form I) to relaxed Form I | effect on SV40 DNA conformation (in words) ([1]; listed as compound 21): observed instantly; also recorded: without incubation, the effect of compound 21 on DNA can be completely reversed using System D; also recorded: more of the mobility shift is retained, with an actual increase in drug effect at the full 8 hours; also recorded: no change in DNA mobility shift is observed even under system D at 8 hours; also recorded: can be returned to normal mobility after treatment with thiourea; also recorded: reversal of compound 21 on SV40 DNA by removal of compound 21 with phenol/chloroform extraction in 0.5M NaCl; also recorded: no change in mobility after phenol/chloroform, 0.5M NaCl extraction | decrease of the concentration at which form I and II comigrate ([1]; from time zero to 8 hours): 2 fold | time to plateau of irreversible effect on DNA conformation ([1]; time course studies): 6 to 8 h
